Test results: PubChem BioAssay (NCI)
Where “and” joins values, the source holds several entries; their conditions need not be identical. Equal values may be shown once.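 A five-concentration, 48-hour dose response in 96-well plates underlies each endpoint, interpolated linearly between surrounding concentrations. GI50 marks 50% less growth. Definition used: TGI = concentration required for complete inhibition of growth.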

System: OVCAR-4 ovarian
Assay: NCI tumour cell line growth inhibition, 48 h

| Compound | GI50 | TGI |
| --- | --- | --- |
| CN1CCN(C(=O)OCc2nc3c(N4CCOCC4)nc(Cl)nc3n2C)CC1 | 1.06 µM | 2.27 µM |
| COC(=O)[C@]12CC[C@@H](C)[C@H](C)[C@@H]1C1=CC[C@@H]3[C@@]4(C)C/C(=N\O)[C@H](O)[C@@]5(C)COC(=C45)C[C@@]3(C)[C@]1(C)CC2 | 4.46 µM | 18.6 µM |
| Oc1c(CN2CCC(N3CCCCC3)CC2)cc(Cc2cc(CN3CCC(N4CCCCC4)CC3)c(O)c3ncccc23)c2cccnc12 | 0.435 µM | 13.6 µM |
| C[C@@H]1OC(O)[C@@H](F)[C@H](O)[C@@H]1O (stereo partly drawn) | > 100 µM | > 100 µM |
| NC(=O)c1ccc(I)c(N)c1 | > 100 µM | > 100 µM |
| CC/C(=C(/c1ccc(O)cc1)c1ccc(OCCNC)cc1)c1ccccc1 | 3.32 µM | 15.4 µM |
| O=C(/C(Br)=C/c1ccccc1)c1ccccc1 | 3.79 µM | 16.9 µM |
| C=C1C(=O)O[C@H]2[C@H]1CC/C(Cn1cc(-c3ccc(OC)cc3)nn1)=C\CC[C@@]1(C)O[C@@H]21 | 1.52 µM | 3.33 µM |
| O=C1CCCCN1CCCCC#Cc1ccccc1C#Cc1ccc([N+](=O)[O-])cc1 | 4.38 µM | 22.5 µM |
| CCOc1cc2c(Cl)ncnc2c(OCC)c1OCC | 13 µM | 27.7 µM |
| Oc1ccc2ccccc2c1N=Nc1nccs1 | 0.457 µM | 16.8 µM |
| CC(=O)OCCN1c2ccccc2Sc2cnccc21 |  | > 10 µM |
| CC(C)(CC(=O)Nc1ccccc1)C(=O)O |  | > 100 µM |
| Cn1c(=O)c2[nH]c(SCc3ccccn3)nc2n(C)c1=S |  | > 100 µM |
| COc1cc2c(c(O)c1Br)C(=O)c1c(O)cc(C[C@H](C)O)cc1[C@H]2[C@H]1c2cc(C[C@H](C)O)cc(O)c2C(=O)c2c1cc(OC)c(Br)c2O | 11.1 µM and 25 µM | 67.5 µM and 98.1 µM |
| COc1ccc(-c2cc(=O)c3ccc(O)cc3o2)cc1OC |  | > 100 µM |
| CC[C@]1(O)C[C@@H]2CN(CCc3c([nH]c4ccccc34)[C@@](C(=O)OC)(c3cc4c(cc3OC)N(C)[C@H]3[C@@](O)(C(=O)OC)[C@H](OC(C)=O)[C@]5(CC)C=CCN6CC[C@]43[C@@H]65)C2)C1 |  | > 100 µM |
| N#CSc1c[nH]c2cccc(/C=C/C(=O)/C=C(/C=C/c3cccc4[nH]cc(SC#N)c34)OB(F)F)c12 | 0.338 µM | 3.95 µM |
| N#Cc1ccc(O)c(C2=NCC(c3cccc(Oc4ccccc4)c3)O2)c1 (stereo not drawn) | 0.519 µM | > 100 µM |

System: MDA-MB-435
Assay: NCI tumour cell line growth inhibition, 48 h

| Compound | GI50 | TGI |
| --- | --- | --- |
| CN1CCN(C(=O)OCc2nc3c(N4CCOCC4)nc(Cl)nc3n2C)CC1 | 1160 nM | 2.44 µM |
| COC(=O)[C@]12CC[C@@H](C)[C@H](C)[C@@H]1C1=CC[C@@H]3[C@@]4(C)C/C(=N\O)[C@H](O)[C@@]5(C)COC(=C45)C[C@@]3(C)[C@]1(C)CC2 | 8280 nM | 22.2 µM |
| Oc1c(CN2CCC(N3CCCCC3)CC2)cc(Cc2cc(CN3CCC(N4CCCCC4)CC3)c(O)c3ncccc23)c2cccnc12 | 1770 nM | 6.41 µM |
| C[C@@H]1OC(O)[C@@H](F)[C@H](O)[C@@H]1O (stereo partly drawn) | > 100000 nM | > 100 µM |
| NC(=O)c1ccc(I)c(N)c1 | > 100000 nM | > 100 µM |
| CC/C(=C(/c1ccc(O)cc1)c1ccc(OCCNC)cc1)c1ccccc1 | 1540 nM | 2.98 µM |
| O=C(/C(Br)=C/c1ccccc1)c1ccccc1 | 1960 nM | 4.67 µM |
| C=C1C(=O)O[C@H]2[C@H]1CC/C(Cn1cc(-c3ccc(OC)cc3)nn1)=C\CC[C@@]1(C)O[C@@H]21 | 1140 nM | 3.24 µM |
| O=C1CCCCN1CCCCC#Cc1ccccc1C#Cc1ccc([N+](=O)[O-])cc1 | 1680 nM | 4.83 µM |
| CCOc1cc2c(Cl)ncnc2c(OCC)c1OCC | 6060 nM | 21.2 µM |
| Oc1ccc2ccccc2c1N=Nc1nccs1 | 3030 nM | 27.9 µM |
| CC(=O)OCCN1c2ccccc2Sc2cnccc21 |  | > 10 µM |
| CC(C)(CC(=O)Nc1ccccc1)C(=O)O |  | > 100 µM |
| Cn1c(=O)c2[nH]c(SCc3ccccn3)nc2n(C)c1=S |  | > 100 µM |
| COc1cc2c(c(O)c1Br)C(=O)c1c(O)cc(C[C@H](C)O)cc1[C@H]2[C@H]1c2cc(C[C@H](C)O)cc(O)c2C(=O)c2c1cc(OC)c(Br)c2O | 5760 nM and 13400 nM | 36.1 µM and 37.6 µM |
| COc1ccc(-c2cc(=O)c3ccc(O)cc3o2)cc1OC |  | > 100 µM |
| CC[C@]1(O)C[C@@H]2CN(CCc3c([nH]c4ccccc34)[C@@](C(=O)OC)(c3cc4c(cc3OC)N(C)[C@H]3[C@@](O)(C(=O)OC)[C@H](OC(C)=O)[C@]5(CC)C=CCN6CC[C@]43[C@@H]65)C2)C1 | < 10 nM | < 0.01 µM |
| N#CSc1c[nH]c2cccc(/C=C/C(=O)/C=C(/C=C/c3cccc4[nH]cc(SC#N)c34)OB(F)F)c12 | 270 nM | 0.869 µM |
| N#Cc1ccc(O)c(C2=NCC(c3cccc(Oc4ccccc4)c3)O2)c1 (stereo not drawn) | 1630 nM | > 100 µM |

System: SR leukemia
Assay: NCI tumour cell line growth inhibition, 48 h

| Compound | GI50 [nM] | TGI [µM] |
| --- | --- | --- |
| CN1CCN(C(=O)OCc2nc3c(N4CCOCC4)nc(Cl)nc3n2C)CC1 | 241 | 1.33 |
| COC(=O)[C@]12CC[C@@H](C)[C@H](C)[C@@H]1C1=CC[C@@H]3[C@@]4(C)C/C(=N\O)[C@H](O)[C@@]5(C)COC(=C45)C[C@@]3(C)[C@]1(C)CC2 | 2330 | 5.77 |
| Oc1c(CN2CCC(N3CCCCC3)CC2)cc(Cc2cc(CN3CCC(N4CCCCC4)CC3)c(O)c3ncccc23)c2cccnc12 | 652 | 3.74 |
| C[C@@H]1OC(O)[C@@H](F)[C@H](O)[C@@H]1O (stereo partly drawn) | > 100000 | > 100 |
| NC(=O)c1ccc(I)c(N)c1 | > 100000 | > 100 |
| CC/C(=C(/c1ccc(O)cc1)c1ccc(OCCNC)cc1)c1ccccc1 | 2090 | 5.46 |
| O=C(/C(Br)=C/c1ccccc1)c1ccccc1 | 1410 | 8.74 |
| C=C1C(=O)O[C@H]2[C@H]1CC/C(Cn1cc(-c3ccc(OC)cc3)nn1)=C\CC[C@@]1(C)O[C@@H]21 | 257 | 1.48 |
